Values belong to the compound of their own block, whether it stands above or below them.
What was measured:
[1] = target: Proto-oncogene tyrosine-protein kinase Src (Homo sapiens, UniProt P12931)
CT26 [2] = assay: Antitumor activity against mouse CT26 cells; assay type: functional, cell-based
[3] = Tmax in mouse at 25 mg/kg, po; assay type: ADME, organism-based; parameters: dose 25 mg/kg, route oral; settings: in vivo
[4] = Tmax in rat at 25 mg/kg, po; assay type: ADME, organism-based; parameters: dose 25 mg/kg, route oral; settings: in vivo
[5] = Tmax in dog at 25 mg/kg, po; assay type: ADME, organism-based, Canis lupus familiaris; parameters: dose 25 mg/kg, route oral; settings: in vivo
[6] = Half life in mouse at 25 mg/kg, po; assay type: ADME, organism-based; parameters: dose 25 mg/kg, route oral; settings: in vivo
[7] = Half life in rat at 25 mg/kg, po; assay type: ADME, organism-based; parameters: dose 25 mg/kg, route oral; settings: in vivo
[8] = Half life in dog at 25 mg/kg, po; assay type: ADME, organism-based, Canis lupus familiaris; parameters: dose 25 mg/kg, route oral; settings: in vivo
Mus musculus [9] = assay: AUC in mouse at 25 mg/kg, po; assay type: ADME, organism-based, Plasma; parameters: dose 25 mg/kg, route oral; settings: in vivo
Rattus norvegicus [10] = assay: AUC in rat at 25 mg/kg, po; assay type: ADME, organism-based, Plasma; parameters: dose 25 mg/kg, route oral; settings: in vivo
Canis familiaris [11] = assay: AUC in dog at 25 mg/kg, po; assay type: ADME, organism-based, Canis lupus familiaris, Plasma; parameters: dose 25 mg/kg, route oral; settings: in vivo
[12] = Clearance in mouse at 25 mg/kg, po; assay type: ADME, organism-based; parameters: dose 25 mg/kg, route oral; settings: in vivo
[13] = Clearance in rat at 25 mg/kg, po; assay type: ADME, organism-based; parameters: dose 25 mg/kg, route oral; settings: in vivo
[14] = Clearance in dog at 25 mg/kg, po; assay type: ADME, organism-based, Canis lupus familiaris; parameters: dose 25 mg/kg, route oral; settings: in vivo
Mus musculus [15] = assay: Volume of distribution in mouse at 25 mg/kg, po; assay type: ADME, organism-based; parameters: dose 25 mg/kg, route oral; settings: in vivo
Rattus norvegicus [16] = assay: Volume of distribution in rat at 25 mg/kg, po; assay type: ADME, organism-based; parameters: dose 25 mg/kg, route oral; settings: in vivo
Canis familiaris [17] = assay: Volume of distribution in dog at 25 mg/kg, po; assay type: ADME, organism-based, Canis lupus familiaris; parameters: dose 25 mg/kg, route oral; settings: in vivo
[18] = Bioavailability in mouse at 25 mg/kg, po; assay type: ADME, organism-based; settings: in vivo
[19] = Bioavailability in rat at 25 mg/kg, po; assay type: ADME, organism-based; settings: in vivo
[20] = Bioavailability in dog at 25 mg/kg, po; assay type: ADME, organism-based, Canis lupus familiaris; settings: in vivo
[21] = target: Platelet-derived growth factor receptor beta (Homo sapiens, UniProt P09619); assay: Inhibition of PDGFRbeta
Chain of Platelet-derived growth factor receptor beta (P09619 whole entry): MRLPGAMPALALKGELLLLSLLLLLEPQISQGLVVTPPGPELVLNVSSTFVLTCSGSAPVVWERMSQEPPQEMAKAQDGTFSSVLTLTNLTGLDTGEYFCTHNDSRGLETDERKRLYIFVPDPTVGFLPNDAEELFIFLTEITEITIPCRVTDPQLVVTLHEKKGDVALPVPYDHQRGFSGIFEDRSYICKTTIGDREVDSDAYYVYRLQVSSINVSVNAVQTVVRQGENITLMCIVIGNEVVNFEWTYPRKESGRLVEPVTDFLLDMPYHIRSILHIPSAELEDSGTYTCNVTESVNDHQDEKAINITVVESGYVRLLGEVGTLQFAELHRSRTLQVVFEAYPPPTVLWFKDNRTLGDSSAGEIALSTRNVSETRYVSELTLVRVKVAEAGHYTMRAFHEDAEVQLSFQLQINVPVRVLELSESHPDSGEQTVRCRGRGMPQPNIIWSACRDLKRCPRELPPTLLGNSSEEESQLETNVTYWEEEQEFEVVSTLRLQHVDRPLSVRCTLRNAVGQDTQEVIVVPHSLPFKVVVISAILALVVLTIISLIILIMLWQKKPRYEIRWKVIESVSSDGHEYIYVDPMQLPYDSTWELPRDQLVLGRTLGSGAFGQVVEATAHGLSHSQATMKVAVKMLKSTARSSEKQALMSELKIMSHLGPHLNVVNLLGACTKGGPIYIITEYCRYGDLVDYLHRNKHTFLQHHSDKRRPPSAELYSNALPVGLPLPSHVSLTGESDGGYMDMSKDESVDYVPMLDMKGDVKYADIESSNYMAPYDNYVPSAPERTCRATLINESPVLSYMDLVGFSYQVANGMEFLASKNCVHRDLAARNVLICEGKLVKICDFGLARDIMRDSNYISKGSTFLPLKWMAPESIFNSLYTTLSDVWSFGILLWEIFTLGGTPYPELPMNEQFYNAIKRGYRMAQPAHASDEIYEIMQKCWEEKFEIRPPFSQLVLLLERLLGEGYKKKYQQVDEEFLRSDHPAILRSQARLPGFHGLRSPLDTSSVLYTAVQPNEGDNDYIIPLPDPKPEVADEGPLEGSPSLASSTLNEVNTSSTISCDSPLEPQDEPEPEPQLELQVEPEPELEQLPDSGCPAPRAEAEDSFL

MOLT-4 = assay: Antitumor activity against Molt4 cells; assay type: functional, cell-based; settings: Homo sapiens
K562 = assay: Antitumor activity against K562 cells; assay type: functional, cell-based; settings: Homo sapiens
COLO 205 = assay: Antitumor activity against Colo205 cells; assay type: functional, cell-based; settings: Homo sapiens
HT-29 = assay: Antitumor activity against HT29 cells; assay type: functional, cell-based; settings: Homo sapiens
MDA-MB-231 = assay: Antitumor activity against MDA-MB-231 cells; assay type: functional, cell-based; settings: Homo sapiens
MCF7 = assay: Antitumor activity against MCF7 cells; assay type: functional, cell-based; settings: Homo sapiens
A549 [22] = assay: Antitumor activity against A549 cells; assay type: functional, cell-based; settings: Homo sapiens
Cytochrome P450 3A4 = Cytochrome P450 3A4 (Homo sapiens, UniProt P08684); assay: Inhibition of CYP3A4; assay type: ADME
Chain of Cytochrome P450 3A4 (P08684 whole entry): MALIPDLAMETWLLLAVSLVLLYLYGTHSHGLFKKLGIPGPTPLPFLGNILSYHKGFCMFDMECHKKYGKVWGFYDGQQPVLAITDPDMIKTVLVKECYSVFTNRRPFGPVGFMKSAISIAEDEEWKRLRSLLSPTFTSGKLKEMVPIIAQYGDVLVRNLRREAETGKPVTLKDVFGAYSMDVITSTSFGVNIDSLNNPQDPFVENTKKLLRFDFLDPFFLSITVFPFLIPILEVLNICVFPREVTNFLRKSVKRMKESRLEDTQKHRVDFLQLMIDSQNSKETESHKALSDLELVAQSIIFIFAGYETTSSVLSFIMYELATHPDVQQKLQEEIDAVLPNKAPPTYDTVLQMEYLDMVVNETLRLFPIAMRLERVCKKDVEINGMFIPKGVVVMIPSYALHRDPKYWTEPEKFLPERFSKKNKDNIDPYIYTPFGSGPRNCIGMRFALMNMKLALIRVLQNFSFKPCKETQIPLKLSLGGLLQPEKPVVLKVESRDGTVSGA

Cytochrome P450 1A2 = target: T1, Cytochrome P450 1A2 (Homo sapiens, UniProt P05177); assay: Inhibition of CYP1A2; assay type: ADME
T1 sequence (P05177 whole entry): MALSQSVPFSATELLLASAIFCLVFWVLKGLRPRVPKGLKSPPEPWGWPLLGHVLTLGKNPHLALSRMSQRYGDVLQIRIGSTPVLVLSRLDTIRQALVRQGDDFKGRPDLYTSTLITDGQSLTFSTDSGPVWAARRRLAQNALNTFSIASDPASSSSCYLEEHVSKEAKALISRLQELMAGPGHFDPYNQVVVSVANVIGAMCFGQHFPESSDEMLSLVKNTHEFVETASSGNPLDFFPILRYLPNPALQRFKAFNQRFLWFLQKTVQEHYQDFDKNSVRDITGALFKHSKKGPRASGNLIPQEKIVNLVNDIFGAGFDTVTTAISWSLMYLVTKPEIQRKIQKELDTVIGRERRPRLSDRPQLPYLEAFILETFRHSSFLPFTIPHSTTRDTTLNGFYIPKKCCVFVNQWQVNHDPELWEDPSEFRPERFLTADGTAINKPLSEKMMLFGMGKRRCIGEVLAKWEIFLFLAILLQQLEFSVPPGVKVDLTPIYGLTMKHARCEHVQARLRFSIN

Cytochrome P450 2C9 = Cytochrome P450 2C9 (Homo sapiens, UniProt P11712); assay: Inhibition of CYP2C9; assay type: ADME
Chain of Cytochrome P450 2C9 (P11712 whole entry): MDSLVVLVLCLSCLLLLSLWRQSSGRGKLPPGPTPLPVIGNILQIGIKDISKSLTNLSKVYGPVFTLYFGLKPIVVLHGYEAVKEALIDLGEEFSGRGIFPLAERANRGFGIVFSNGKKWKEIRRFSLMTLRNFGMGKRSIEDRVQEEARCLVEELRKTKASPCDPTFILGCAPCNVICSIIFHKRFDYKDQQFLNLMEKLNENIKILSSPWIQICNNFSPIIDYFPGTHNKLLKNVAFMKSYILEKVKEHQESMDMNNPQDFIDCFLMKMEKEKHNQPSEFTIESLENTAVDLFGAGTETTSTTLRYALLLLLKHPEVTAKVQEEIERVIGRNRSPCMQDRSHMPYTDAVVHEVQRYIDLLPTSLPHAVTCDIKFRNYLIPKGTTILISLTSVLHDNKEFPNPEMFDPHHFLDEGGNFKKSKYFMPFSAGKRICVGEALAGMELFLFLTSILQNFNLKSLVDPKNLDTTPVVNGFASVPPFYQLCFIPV

Cytochrome P450 2C19 = Cytochrome P450 2C19 (Homo sapiens, UniProt P33261); assay: Inhibition of CYP2C19; assay type: ADME
Chain of Cytochrome P450 2C19 (P33261 whole entry): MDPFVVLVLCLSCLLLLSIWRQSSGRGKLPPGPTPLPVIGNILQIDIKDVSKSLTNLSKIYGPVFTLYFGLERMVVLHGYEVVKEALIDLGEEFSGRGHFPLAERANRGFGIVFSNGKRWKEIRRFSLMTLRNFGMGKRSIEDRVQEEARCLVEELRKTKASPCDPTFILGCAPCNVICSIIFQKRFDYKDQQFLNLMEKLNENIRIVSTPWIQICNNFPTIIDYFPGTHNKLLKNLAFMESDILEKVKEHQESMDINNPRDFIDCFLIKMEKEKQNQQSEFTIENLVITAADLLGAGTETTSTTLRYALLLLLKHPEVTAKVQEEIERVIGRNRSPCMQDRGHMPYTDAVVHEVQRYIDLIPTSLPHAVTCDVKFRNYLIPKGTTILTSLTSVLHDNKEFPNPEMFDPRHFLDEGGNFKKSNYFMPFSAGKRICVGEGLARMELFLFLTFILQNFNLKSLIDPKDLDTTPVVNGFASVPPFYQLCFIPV

Cytochrome P450 2D6 = Cytochrome P450 2D6 (Homo sapiens, UniProt P10635); assay: Inhibition of CYP2D6; assay type: ADME
Chain of Cytochrome P450 2D6 (P10635 whole entry): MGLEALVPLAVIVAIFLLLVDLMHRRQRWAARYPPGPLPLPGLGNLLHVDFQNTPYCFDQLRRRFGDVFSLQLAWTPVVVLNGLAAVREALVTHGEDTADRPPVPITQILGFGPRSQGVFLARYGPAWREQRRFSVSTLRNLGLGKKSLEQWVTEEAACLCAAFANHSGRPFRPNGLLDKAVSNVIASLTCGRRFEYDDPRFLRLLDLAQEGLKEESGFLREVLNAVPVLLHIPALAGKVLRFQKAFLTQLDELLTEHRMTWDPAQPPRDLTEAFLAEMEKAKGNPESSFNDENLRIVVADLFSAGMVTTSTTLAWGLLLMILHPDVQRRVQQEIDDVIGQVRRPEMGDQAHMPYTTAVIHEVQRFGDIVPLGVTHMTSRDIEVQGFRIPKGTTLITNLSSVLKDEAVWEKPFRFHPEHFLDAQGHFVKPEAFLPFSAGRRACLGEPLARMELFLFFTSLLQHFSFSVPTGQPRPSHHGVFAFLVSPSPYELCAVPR

CT26 [23] = assay: Reduction of tumor volume in CT26 xenografted in BALB/c mouse at 50 mg/kg, ip relative to control; assay type: functional; parameters: scale not given: the % may be the effect or the level left; settings: route intraperitoneal
A549 [24] = assay: Reduction of tumor burden in A549 cells xenografted in nu/nu mouse at 40 mg/kg, ip relative to control; assay type: functional; parameters: scale not given: the % may be the effect or the level left; settings: route intraperitoneal
[25] = Cmax in mouse at 25 mg/kg, po; assay type: ADME, organism-based; parameters: dose 25 mg/kg, route oral; settings: in vivo
[26] = Cmax in rat at 25 mg/kg, po; assay type: ADME, organism-based; parameters: dose 25 mg/kg, route oral; settings: in vivo
[27] = Cmax in dog at 25 mg/kg, po; assay type: ADME, organism-based, Canis lupus familiaris; parameters: dose 25 mg/kg, route oral; settings: in vivo

Chain of Proto-oncogene tyrosine-protein kinase Src (P12931 2-536 limits assumed): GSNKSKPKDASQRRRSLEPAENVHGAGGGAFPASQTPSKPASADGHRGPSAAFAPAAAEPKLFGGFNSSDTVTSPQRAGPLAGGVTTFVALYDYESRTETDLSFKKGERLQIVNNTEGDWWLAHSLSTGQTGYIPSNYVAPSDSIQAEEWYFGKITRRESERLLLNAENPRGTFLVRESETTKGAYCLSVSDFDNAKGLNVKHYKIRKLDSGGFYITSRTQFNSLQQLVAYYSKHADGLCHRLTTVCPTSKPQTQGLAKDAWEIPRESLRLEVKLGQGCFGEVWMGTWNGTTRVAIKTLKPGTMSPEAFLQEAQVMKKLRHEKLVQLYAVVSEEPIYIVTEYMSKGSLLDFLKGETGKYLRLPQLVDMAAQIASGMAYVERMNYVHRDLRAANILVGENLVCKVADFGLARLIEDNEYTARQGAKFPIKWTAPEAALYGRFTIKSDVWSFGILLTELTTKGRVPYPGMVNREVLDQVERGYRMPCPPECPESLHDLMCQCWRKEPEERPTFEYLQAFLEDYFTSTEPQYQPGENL

SMILES: COc1cc2c(cc1O)CCN[C@]21CS[C@H]2c3c(OC(C)=O)c(C)c4c(c3[C@@H](COC1=O)N1[C@@H]2[C@H]2c3c(cc(C)c(OC)c3O)C[C@@H]([C@@H]1O)N2C)OCO4
IC50 [1]: 0.208 µM

SMILES: CCN(CC)CCOc1cccc(Nc2nnc3cc(-c4c(C)cccc4C)cc(C)c3n2)c1
IC50 (CT26 [2]): 2.5 µM

SMILES: Clc1cccc(Cl)c1-c1ccc2nc(Nc3ccc(OCCN4CCCC4)cc3)nnc2c1
IC50 [1]: 0.03 µM

SMILES: Cc1cccc(C)c1-c1cc(C)c2nc(Nc3ccc(OCCN4CCN(C)CC4)cc3)nnc2c1
IC50 (CT26 [2]): 6.6 µM

SMILES: Cc1cc(-c2c(Cl)cccc2Cl)cc2nnc(Nc3ccc(OCCN4CCCC4)cc3)nc12
Tmax [3]: 8 h | Tmax [4]: 8.8 h | Tmax [5]: 4 h | half-life [6]: 8 h | half-life [7]: 4.6 h | half-life [8]: 13 h | AUC (Mus musculus [9]): 15300 ng·h/mL | AUC (Rattus norvegicus [10]): 8010 ng·h/mL | AUC (Canis familiaris [11]): 8680 ng·h/mL | CL/F [12]: 12.7 mL/min/kg | CL/F [13]: 12.7 mL/min/kg | CL/F [14]: 14.5 mL/min/kg | Vdss (Mus musculus [15]): 16.1 L/kg | Vdss (Rattus norvegicus [16]): 9.4 L/kg | Vdss (Canis familiaris [17]): 18.7 L/kg | bioavailability [18]: 74% | bioavailability [19]: 35% | bioavailability [20]: 42% | Ki [21]: 2.09 µM | IC50 (MOLT-4): 0.25 µM | IC50 (K562): 0.215 µM | IC50 (CT26 [2]): 0.75 µM | IC50 (COLO 205): 2.5 µM | IC50 (HT-29): > 5 µM | IC50 (MDA-MB-231): 0.24 µM | IC50 (MCF7): 0.085 µM | IC50 (A549 [22]): 0.9 µM | IC50 (Cytochrome P450 3A4): 62 µM | IC50 (Cytochrome P450 1A2): > 100 µM | IC50 (Cytochrome P450 2C9): > 100 µM | IC50 (Cytochrome P450 2C19): 12 µM | IC50 (Cytochrome P450 2D6): 33 µM | Activity (CT26 [23]): 60% | Activity (A549 [24]): 86% | Cmax [25]: 415 ng/mL | Cmax [26]: 348 ng/mL | Cmax [27]: 679 ng/mL

SMILES: Cc1cccc(C)c1-c1cc(C)c2nc(Nc3ccc(C(=O)NN4CCN(C)CC4)cc3)nnc2c1
IC50 (CT26 [2]): 6.7 µM | IC50 [1]: 0.015 µM

SMILES: Cc1cccc(C)c1-c1cc(C)c2nc(Nc3ccc(C(=O)NN4CCNCC4)cc3)nnc2c1
IC50 [1]: 0.013 µM

SMILES: Cc1cccc(C)c1-c1cc(C)c2nc(Nc3cccc(N(CCN4CCCC4)C(=O)c4ccccc4)c3)nnc2c1
IC50 [1]: 0.018 µM

SMILES: Cc1cnc(F)cc1-c1cc(C)c2nc(Nc3ccc(OCCN4CCCC4)cc3)nnc2c1
IC50 [1]: 0.204 µM

SMILES: Cc1cccc(C)c1-c1cc(C)c2nc(Nc3ccc(N(CCN4CCCC4)C(=O)c4ccccc4)cc3)nnc2c1
IC50 (CT26 [2]): 2.4 µM | IC50 [1]: 0.016 µM

SMILES: CC(=O)Nc1cc(-c2c(C)cccc2C)cc2nnc(Nc3ccc(OCCN4CCCC4)cc3)nc12
IC50 [1]: 0.014 µM

SMILES: COc1ccc(Cl)c(-c2cc(C)c3nc(Nc4ccc(OCCN5CCCC5)cc4)nnc3c2)c1
IC50 [1]: 0.778 µM

SMILES: Cc1cccc(C)c1-c1cc(C)c2nc(Nc3ccc(OCCN4CCCC4)cc3)nnc2c1
Tmax [3]: 6 h | Tmax [4]: 6 h | Tmax [5]: 1.5 h | half-life [6]: 9.5 h | half-life [7]: 5.6 h | half-life [8]: 19 h | AUC (Mus musculus [9]): 19100 ng·h/mL | AUC (Rattus norvegicus [10]): 9570 ng·h/mL | AUC (Canis familiaris [11]): 9680 ng·h/mL | CL/F [12]: 18.8 mL/min/kg | CL/F [13]: 9.2 mL/min/kg | CL/F [14]: 5.1 mL/min/kg | Vdss (Mus musculus [15]): 11.4 L/kg | Vdss (Rattus norvegicus [16]): 7.2 L/kg | Vdss (Canis familiaris [17]): 8.6 L/kg | bioavailability [18]: 86% | bioavailability [19]: 20% | bioavailability [20]: 68% | IC50 (CT26 [2]): 2.3 µM | IC50 (Cytochrome P450 3A4): 42 µM | IC50 (Cytochrome P450 1A2): > 100 µM | IC50 (Cytochrome P450 2C9): > 100 µM | IC50 (Cytochrome P450 2C19): 12 µM | IC50 (Cytochrome P450 2D6): 25 µM | Cmax [25]: 790 ng/mL | Cmax [26]: 419 ng/mL | Cmax [27]: 5240 ng/mL

SMILES: Cc1cccc(C)c1-c1cc(C)c2nc(Nc3ccnc(OCCN4CCCC4)c3)nnc2c1
IC50 (CT26 [2]): 2.4 µM

Further lines, results first:

IC50 [1]: 0.092 µM
SMILES: Cc1cc2nc(Nc3ccc(S(=O)(=O)NCCN4CCCC4)cc3)nnc2cc1N

IC50 [1]: 0.01 µM
SMILES: Cc1cccc(C)c1-c1cc(N)c2nc(Nc3ccc(OCCN4CCCC4)cc3)nnc2c1

IC50 [1]: 0.01 µM
SMILES: CNc1cc(-c2c(C)cccc2C)cc2nnc(Nc3ccc(OCCN4CCCC4)cc3)nc12

IC50 [1]: 0.353 µM
SMILES: Cc1ccc(CN)cc1-c1cc(C)c2nc(Nc3ccc(S(=O)(=O)NCCN4CCCC4)cc3)nnc2c1

IC50 [1]: > 10 µM
SMILES: c1ccc2nc(Nc3ccc(OCCN4CCCC4)cc3)nnc2c1

IC50 [1]: 0.021 µM
SMILES: Cc1cccc(C)c1-c1cc(NS(C)(=O)=O)c2nc(Nc3ccc(OCCN4CCCC4)cc3)nnc2c1

IC50 [1]: > 10 µM
SMILES: Cc1cc2nc(Nc3ccc(S(=O)(=O)NCCN4CCCC4)cc3)nnc2cc1Br

IC50 [1]: > 10 µM
SMILES: Cc1ccc2nnc(Nc3ccc(S(=O)(=O)NCCN4CCCC4)cc3)nc2c1

Reference: ChEMBL document CHEMBL1143794, “Discovery of [7-(2,6-dichlorophenyl)-5-methylbenzo [1,2,4]triazin-3-yl]-[4-(2-pyrrolidin-1-ylethoxy)phenyl]amine--a potent, orally active Src kinase inhibitor with anti-tumor activity in preclinical assays” (Bioorg Med Chem Lett, 2007)
